Results from patent US9149038B2, “4-amino-6-(heterocyclic)picolinates and 6-amino-2-(heterocyclic)pyrimidine-4-carboxylates and their use as herbicides” (Dow AgroSciences LLC, priority 2013, dated 2015).
Read-outs that look alike come from different tables or passages of the source.

System: Direct Seeded Rice and weed species
Assay: Postemergence herbicidal activity in direct seeded rice, visual rating after 20-22 days and probit GR20/GR50/GR80/GR90 (Table 14)
Format: in vivo
Conditions: for pest or weed control at 17.5 g/ha / pest or weed control at 35 g/ha / pest or weed control at 70 g/ha: post-emergence, 504 h, postemergence; for pest or weed control at 17.5 g/ha: 17.5 g ai/ha; for pest or weed control at 35 g/ha: 35 g ai/ha; for pest or weed control at 70 g/ha: 70 g ai/ha
Excerpt: Herbicidal evaluations were made visually on a scale of 0 to 100 where 0 represents no activity and 100 represents complete plant death. Seeds or nutlets of the desired test plant species were planted in a soil matrix prepared by mixing a loam soil (43 percent silt, 19 percent clay, and 38 percent sand, with a pH of about 8.1 and an organic matter content of about 1.5 percent) and river sand in an 80 to 20 ratio. The soil matrix was contained in plastic pots with a surface area of 139.7 cm^2. When required to ensure good germination and healthy plants, a fungicide treatment and/or other chemical or physical treatment was applied. The plants were grown for 10-17 d in a greenhouse with an approximate 14-h photoperiod which was maintained at about 29° C. during the day and 26° C. during the night. Nutrients and water were added on a regular basis and supplemental lighting was provided with overhead metal halide 1000-Watt lamps as necessary. The plants were employed for testing when they reached the second or third true leaf stage. A weighed amount, determined by the highest rate to be tested, of each test compound was placed in 25 mL glass vials and dissolved in a volume of 97:3 v/v acetone-DMSO to obtain 12× stock solutions. […] The concentrated stock solutions were added to the spray solutions so that the final acetone and DMSO concentrations were 16.2% and 0.5%, respectively. Spray solutions were diluted to the appropriate final concentrations with the addition of 10 mL of an aqueous mixture of 1.5% (v/v) Agri-dex crop oil concentrate. The final spray solutions contained 1.25% (v/v) Agri-dex crop oil concentrate. Compound requirements are based upon a 12 mL application volume at a rate of 187 L/ha. Formulated compounds were applied to the plant material with an overhead Mandel track sprayer equipped with […] nozzles calibrated to deliver 187 L/ha over an application area of 0.503 square meters (m^2) at a spray height of 18 inches (43 cm) above average plant canopy height. Control plants were sprayed in the same manner with the solvent blank. The treated plants and control plants were placed in a greenhouse as described above and watered by sub-irrigation to prevent wash-off of the test compounds. After 20-22 days, the condition of the test plants, compared with that of the untreated plants, was determined visually and scored on a scale of 0 to 100 percent where 0 corresponds to no injury and 100 corresponds to complete kill and are presented as indicated in Table 4. By applying the well-accepted probit analysis as described by J. Berkson in Journal of the American Statistical Society, 48, 565 (1953) and by D. Finney in “Probit Analysis” Cambridge University Press (1952), herbicidal injury of a specific compound at various rates can be used to calculate GR20, GR50, GR80 and GR90 values, which are defined as growth reduction factors that correspond to the effective dose of herbicide required to provide plant growth reduction (GR) of 20 percent, 50 percent, 80 percent and 90 percent, respectively. Probit analysis was applied to data collected from multiple dose rates of individual compounds utilizing the procedures explained in the following examples. The data for some of the dose rates and analysis of all of the dose rates are captured in the following tables.

[1] = BRAPP (broadleaf signalgrass, Brachiaria platyphylla), read-out: Visual Growth Reduction (%) 21 Days After Application BRAPP
[2] = CYPDI (small-flower flatsedge, Cyperus difformis), read-out: Visual Growth Reduction (%) 21 Days After Application CYPDI
[3] = CYPES (yellow nutsedge, Cyperus esculentus), read-out: Visual Growth Reduction (%) 21 Days After Application CYPES
[4] = CYPIR (rice flatsedge, Cyperus iria), read-out: Visual Growth Reduction (%) 21 Days After Application CYPIR
[5] = DIGSA (large crabgrass, Digitaria sanguinalis), read-out: Visual Growth Reduction (%) 21 Days After Application DIGSA
[6] = ECHCG (barnyardgrass, Echinochloa crus-galli), read-out: Visual Growth Reduction (%) 21 Days After Application ECHCG
[7] = ECHCO (junglerice, Echinochloa colonum), read-out: Visual Growth Reduction (%) 21 Days After Application ECHCO
[8] = LEFCH (Chinese sprangletop, Leptochloa chinensis), read-out: Visual Growth Reduction (%) 21 Days After Application LEFCH
[9] = ORYSJ (Oryza sativa, rice crop), read-out: Visual Growth Reduction (%) 21 Days After Application ORYSJ
[10] = ORYSK (Oryza sativa, rice crop), read-out: Visual Growth Reduction (%) 21 Days After Application ORYSK
[11] = SCPJU (Japanese bulrush, Schoenoplectus juncoides Roxb.), read-out: Visual Growth Reduction (%) 21 Days After Application SCPJU
[12] = SEBEX (hemp sesbania, Sesbania exaltata), read-out: Visual Growth Reduction (%) 21 Days After Application SEBEX

Nc1c(F)c(-c2ccc3c(c2F)OC(F)(F)O3)nc(C(=O)O)c1Cl [Compound 11]
GR50 BRAPP (BRAPP (Brachiaria platyphylla), probit analysis, dose for 50 percent growth reduction): 7 g ai/ha | GR80 BRAPP (BRAPP (Brachiaria platyphylla), probit analysis, dose for 80 percent growth reduction): 16 g ai/ha | GR90 BRAPP (BRAPP (Brachiaria platyphylla), probit analysis, dose for 90 percent growth reduction): 25 g ai/ha | GR50 CYPDI (CYPDI (Cyperus difformis), probit analysis, dose for 50 percent growth reduction): 3 g ai/ha | GR80 CYPDI (CYPDI (Cyperus difformis), probit analysis, dose for 80 percent growth reduction): 7 g ai/ha | GR90 CYPDI (CYPDI (Cyperus difformis), probit analysis, dose for 90 percent growth reduction): 10 g ai/ha | GR50 CYPES (CYPES (Cyperus esculentus), probit analysis, dose for 50 percent growth reduction): <18 g ai/ha | GR80 CYPES (CYPES (Cyperus esculentus), probit analysis, dose for 80 percent growth reduction): <18 g ai/ha | GR90 CYPES (CYPES (Cyperus esculentus), probit analysis, dose for 90 percent growth reduction): <18 g ai/ha | GR50 CYPIR (CYPIR (Cyperus iria), probit analysis, dose for 50 percent growth reduction): 5 g ai/ha | GR80 CYPIR (CYPIR (Cyperus iria), probit analysis, dose for 80 percent growth reduction): 7 g ai/ha | GR90 CYPIR (CYPIR (Cyperus iria), probit analysis, dose for 90 percent growth reduction): 7 g ai/ha | GR50 DIGSA (DIGSA (Digitaria sanguinalis), probit analysis, dose for 50 percent growth reduction): 1 g ai/ha | GR80 DIGSA (DIGSA (Digitaria sanguinalis), probit analysis, dose for 80 percent growth reduction): 4 g ai/ha | GR90 DIGSA (DIGSA (Digitaria sanguinalis), probit analysis, dose for 90 percent growth reduction): 9 g ai/ha | GR50 ECHCG (ECHCG (Echinochloa crus-galli), probit analysis, dose for 50 percent growth reduction): 7 g ai/ha | GR80 ECHCG (ECHCG (Echinochloa crus-galli), probit analysis, dose for 80 percent growth reduction): 15 g ai/ha | GR90 ECHCG (ECHCG (Echinochloa crus-galli), probit analysis, dose for 90 percent growth reduction): 23 g ai/ha | GR50 ECHCO (ECHCO (Echinochloa colonum), probit analysis, dose for 50 percent growth reduction): 4 g ai/ha | GR80 ECHCO (ECHCO (Echinochloa colonum), probit analysis, dose for 80 percent growth reduction): 9 g ai/ha | GR90 ECHCO (ECHCO (Echinochloa colonum), probit analysis, dose for 90 percent growth reduction): 14 g ai/ha | GR50 LEFCH (LEFCH (Leptochloa chinensis), probit analysis, dose for 50 percent growth reduction): 23 g ai/ha | GR80 LEFCH (LEFCH (Leptochloa chinensis), probit analysis, dose for 80 percent growth reduction): 34 g ai/ha | GR90 LEFCH (LEFCH (Leptochloa chinensis), probit analysis, dose for 90 percent growth reduction): 41 g ai/ha | GR20 ORYSJ (ORYSJ (Oryza sativa, rice crop), probit analysis, dose for 20 percent growth reduction): 8 g ai/ha | GR20 ORYSK (ORYSK (Oryza sativa, rice crop), probit analysis, dose for 20 percent growth reduction): 7 g ai/ha | GR50 SCPJU (SCPJU (Schoenoplectus juncoides Roxb.), probit analysis, dose for 50 percent growth reduction): 0.04 g ai/ha | GR80 SCPJU (SCPJU (Schoenoplectus juncoides Roxb.), probit analysis, dose for 80 percent growth reduction): 1 g ai/ha | GR90 SCPJU (SCPJU (Schoenoplectus juncoides Roxb.), probit analysis, dose for 90 percent growth reduction): 2 g ai/ha | GR50 SEBEX (SEBEX (Sesbania exaltata), probit analysis, dose for 50 percent growth reduction): 3 g ai/ha | GR80 SEBEX (SEBEX (Sesbania exaltata), probit analysis, dose for 80 percent growth reduction): 7 g ai/ha | GR90 SEBEX (SEBEX (Sesbania exaltata), probit analysis, dose for 90 percent growth reduction): 10 g ai/ha | pest or weed control at 17.5 g/ha [1]: 85 to 94% | pest or weed control at 35 g/ha [1]: 95 to 100% | pest or weed control at 70 g/ha [1]: 95 to 100% | pest or weed control at 17.5 g/ha [2]: 95 to 100% | pest or weed control at 35 g/ha [2]: 95 to 100% | pest or weed control at 70 g/ha [2]: 95 to 100% | pest or weed control at 17.5 g/ha [3]: 85 to 94% | pest or weed control at 35 g/ha [3]: 95 to 100% | pest or weed control at 70 g/ha [3]: 95 to 100% | pest or weed control at 17.5 g/ha [4]: 95 to 100% | pest or weed control at 35 g/ha [4]: 95 to 100% | pest or weed control at 70 g/ha [4]: 95 to 100% | pest or weed control at 17.5 g/ha [5]: 95 to 100% | pest or weed control at 35 g/ha [5]: 95 to 100% | pest or weed control at 70 g/ha [5]: 95 to 100% | pest or weed control at 17.5 g/ha [6]: 95 to 100% | pest or weed control at 35 g/ha [6]: 85 to 94% | pest or weed control at 70 g/ha [6]: 95 to 100% | pest or weed control at 17.5 g/ha [7]: 95 to 100% | pest or weed control at 35 g/ha [7]: 95 to 100% | pest or weed control at 70 g/ha [7]: 95 to 100% | pest or weed control at 17.5 g/ha [8]: 0 to 29% | pest or weed control at 35 g/ha [8]: 95 to 100% | pest or weed control at 70 g/ha [8]: 95 to 100% | pest or weed control at 17.5 g/ha [9]: 30 to 44% | pest or weed control at 35 g/ha [9]: 75 to 84% | pest or weed control at 70 g/ha [9]: 85 to 94% | pest or weed control at 17.5 g/ha [10]: 45 to 59% | pest or weed control at 35 g/ha [10]: 60 to 74% | pest or weed control at 70 g/ha [10]: 75 to 84% | pest or weed control at 17.5 g/ha [11]: 95 to 100% | pest or weed control at 35 g/ha [11]: 95 to 100% | pest or weed control at 70 g/ha [11]: 95 to 100% | pest or weed control at 17.5 g/ha [12]: 95 to 100% | pest or weed control at 35 g/ha [12]: 95 to 100% | pest or weed control at 70 g/ha [12]: 95 to 100%
